This note sets out measurements from article PMC10302146, “Dual Anta-Inhibitors Targeting Protein Kinase CK1δ and A2A Adenosine Receptor Useful in Neurodegenerative Disorders” (Molecules, 2023).

Data set [1] deals with N13 microglial cells. Briefly: N13 cell viability (CellTiter 96 AQueous One, MTS), ligands alone. Format: cell-based. The following applies: absence of CK cocktail. Here is the method: Starting from these observations, since this double effect could be a suitable strategy for the treatment of chronic neurodegenerative diseases, in which neuroinflammation plays a crucial role, these compounds were tested on an in vitro model of neuroinflammation in comparison with the reference compounds. The experiments were performed using N13 microglial cells. The colorimetric method CellTiter 96® AQueous One Solution Cell Proliferation assay was used to determine the number of live cells in cytotoxicity or proliferation assays. The tetrazole compound MTS was bio-reduced by the cells into formazan, a colored product soluble in the cellular medium. The percentage of cell viability was analyzed through an absorbance reading at 492 nm. The concentrations of ligands were chosen based on the results of binding assays. Specifically, lower, similar, and higher concentrations than the Ki value were used.
Experiments were performed in triplicate.

A short description of data set [2]: Everted gut sac absorption study (duodenum), HPLC-MS. The following applies: for Papp at 60 min: male, Wistar, rat. It is filed as in vitro ADME, rat. Here is the method: Despite these remarkable assumptions, as many known kinase inhibitors are very often unable to cross lipid bilayer membranes, including the blood–brain barrier, and are, therefore, only suitable for non-central nervous system disorders, the ability of A2A/CK1δ double anta-inhibitors to cross the intestinal barrier was investigated. The experiment was performed using the everted gut sac model. The everted sac model is an efficient tool for studying in vitro drug absorption mechanisms, intestinal metabolism of drugs, the role of transporters in drug absorption, and investigating the role of intestinal enzymes during drug transport through the intestine. Compounds 1 and 2 were measured by liquid chromatography-mass spectrometry (LC-MS) in the mucosal and serosal media to provide a complete picture of the transport.
Compounds 1 and 2 were incubated in the duodenum for 60 min at concentrations of 10^−4, 10^−5, and 10^−6 M to evaluate their absorption.
The concentrations 10^−4, 10^−5, and 10^−6 M correspond to 24.6, 2.46, and 0.246 μg/mL of compound 1 and to 37.6, 3.76, and 0.376 μg/mL of compound 2 due to different molecular weights. Glucose was used to verify the integrity and viability of the gut sacs. Intestine sacs were exposed to the concentrations of compounds under study with respect to glucose-treated tissues. After incubation time, fluids from the mucosal (outside the sacs) and serosal (inside the sacs) sides of the rat gut sacs were collected and detected by HPLC-MS analysis. As expected, the amount of the absorbed analytes was concentration dependent even if compound 1 was much better absorbed with respect to compound 2 (Table 2 and Table 3). […] Data are reported as means ± SE (n = 4–5 experiments). The amount of compounds absorbed compared to the initial concentration is statistically different (p < 0.05).
Adult male Wistar rats (250–300 g; 11–12 weeks) were sacrificed by cervical dislocation, the small intestine was removed, and the duodenum segment was isolated and washed in TC199 medium. The intestine was divided into segments of 2–2.5 cm in length (4 for each animal), and each of them was everted on a glass rod of […] in diameter. All segments were closed at one end with a silk thread, filled with fresh oxygenated TC199 medium, and closed at the other end, creating a shut section (sac). Each sac was placed in a 50 mL beaker containing 9.0 mL of medium aerated with oxygen (O2/CO2, 95%:5%) and thermostated at 37 °C. A total of 1 mL of medium containing one of the samples at a concentration of 1 uM, 10 uM, or 100 uM was added. Each concentration was tested in duplicate in three different animals. In order to mimic the intestine peristalsis, gut sacs were incubated in an oscillating water bath (60 cycles/min). After 1h incubation, sacs were removed, washed in saline solution (0.9% NaCl), and wiped with filter paper. The content of each sac (serosal fluid) was collected into a 1.5 mL Eppendorf tube, and the sac was weighed before and after serosal fluid removal to calculate the exact volume contained inside. Samples were centrifuged for 15 min. at 13,500× g, and the supernatant aqueous solution was filtered through a microporous membrane (0.45 μm) for high-performance liquid chromatography (HPLC). The amount of compound 1 or 2 present inside (serosal fluid) and outside (mucosal fluid) of each sac was calculated by HPLC with diode-array detection (HPLC-DAD) analysis.
The obtained samples from the everted sac model experiment were centrifuged for 20 min at 13,500× g rpm, and the supernatant aqueous solution was filtered through a microporous membrane (0.45 μm pore size) for high-performance liquid chromatography-mass spectrometry analysis. LC-MS analysis was carried out using an HPLC Agilent Technologies 1260 Infinity II and a single quadrupole mass spectrometer. […]

Data set [3] relates to N13 cell line. Briefly: Griess assay, nitrite production (antioxidant effect). Format: cell-based. The following applies: for antioxidant activity (Griess Reagent System): compound 1 7500 nM, incubated for 1 hr, vs. ZM241385 10 nM. From the text: In addition, since oxidative stress has received extensive attention as one important entry point in the pathogenesis of neurodegenerative diseases, the potential antioxidant profile of compounds 1 and 2 was investigated. Oxidative stress and neuroinflammation play synergistic roles in the promotion of neurodegenerative disease progression. During a CNS insult, there is an activation of microglial cells, which stimulate immune responses to instigate tissue repair. If the triggering cause of the immune response is eradicated, the immune response resolves, but if the initial stress persists, it will lead to an overproduction of neurotoxic factors such as chemokines and proinflammatory cytokines such as Tumor Necrosis Factor-α (TNF-α) and Interleukin-1β (IL-1β). This pathological state will lead to an overproduction of ROS and a state of oxidative stress. High levels of ROS inactivate or damage proteins, leading to cellular degeneration and death. Furthermore, ROS can activate proinflammatory pathways, further promoting a harmful environment for vulnerable neurons. In light of this, the potential antioxidant capacity of compounds was studied. […] The combination of anti-inflammatory and antioxidant activities makes compound 2 particularly appealing in counteracting two of the factors involved in the pathogenesis of neurodegenerative pathologies.
The N13 cell line was introduced into a 96-well UV-VIS transparent plate at a population of 1 × 10^4 cells per well in 98 μL of DMEM and incubated overnight. […] After 24 h of incubation, the media from each well was transferred into another 96-well plate, and then 50 µL of the sulphanilamide solution was placed into the wells. After 10 min of incubation at room temperature (rt), 50 µL of the NED solution was dispensed to all wells, and the plate was incubated at rt for an additional 5–10 min. After half an hour, absorbance was measured in the microplate reader GENiosPro using a 520–550 nm filter. All measurements were reproduced in 3–5 replicates. The nitric oxide formation was investigated by measuring nitrite (NO^2−), which is one of two primary breakdown products of NO. A nitrite standard reference curve was used for quantitative evaluation of the concentration of NO^2− in samples.

Data set [4] relates to N13 microglial cells. Put plainly: N13 cell viability, ligand pretreatment 60 min then CK cocktail 48 h (CK1δ inhibition protocol). Format: cell-based.
Setting [5] is: duodenum, 60 min, initial 10^−4 M (24.6 μg/mL compound 1, 37.6 μg/mL compound 2).
Setting [6] is: duodenum, 60 min, initial 10^−5 M (2.46 μg/mL compound 1, 3.76 μg/mL compound 2).
Where [7] appears, read: duodenum, 60 min, initial 10^−6 M (0.246 μg/mL compound 1, 0.376 μg/mL compound 2).

`CN(C)c1nc(NCc2nc3ccccc3[nH]2)c2ncn(C3CCCC3)c2n1` [compound 2, N^6-methyl-(2-benzimidazolyl)-2-dimethyamino-9-cyclopentyladenine]: the “cell viability vs. control” value is recorded as 86% ± 1.2 in data set [1] (0.375 µM, 30 min); 109% ± 1.4 in data set [1] (4.5 µM, 60 min); “decrease in cell viability similar to 30 min of incubation” in data set [1] (0.375 and 0.75 µM, 60 min); “decrease in cell viability” in data set [1] (all concentrations (0.375, 0.75, 4.5 µM), 30 min). Besides, the “Papp (×10^−6 cm/s)” value in data set [2] (10^−4 M, 60 min) is 16.1 ×10^−6 cm/s; in data set [2] (10^−5 M, 60 min), 10.8 ×10^−6 cm/s. Further, the “Percentage of Drug Absorption (A%)” value in data set [2] (10^−4 M, 60 min) is recorded as 23%; in data set [2] (10^−5 M, 60 min), 15%. Also, the “Percentage of Drug Retention (Ad%)” value is reported as 55% in data set [2] (10^−4 M, 60 min) and 66% in data set [2] (10^−5 M, 60 min). For the same compound, the “metabolic conversion in everted gut sac (HPLC analysis)” value in data set [2] (duodenum, 60 min) is reported as “partially converted into its metabolite, compound 1”. Besides, the “Absorbed Concentration” value in data set [2] (setting [5]) was 8.66 µg/mL; in data set [2] (setting [6]), 0.576 µg/mL; in data set [2] (setting [7]) it was “not detectable”. Further, the “amount of nitrite produced vs. control” value in data set [3] (4500 nM) is on record as “inferior to that revealed in the control”. Moreover, in data set [3] (compound 2 4500 nM), the “antioxidant activity (Griess Reagent System)” value is reported as “important antioxidant effect similar to that of the reference compound”. The “compensation of oxidative stress caused by the CK cocktail” value in data set [3] (compound 2 4500 nM, ZM241385 10 nM) is reported as “successfully compensated”. For the same compound, the cell viability in data set [4] (25 µM 60 min before CK cocktail 48 h, CK cocktail alone 79% ± 1.1 vs. control (Figure 6)) was 94% ± 2.2. For the same compound, the “effect of NECA on the neuroprotective effect of the compound” value in data set [4] (compound 25 µM 60 min before CK cocktail 48 h, then NECA 10 µM) is recorded as “ineffective”.
In general, Papp refers to a coefficient for how fast a substance crosses the barrier. The low end stands for poor permeation, the high end for ready permeation. By viability is commonly meant the share of living cells, or the viability signal relative to a control. Regarding `CN(C)c1nc(N)c2ncn(C3CCCC3)c2n1` [compound 1, 9-Cyclopentyl-N2,N2-dimethyl-9H-purine-2,6-diamine], the “cell viability vs. control” value in data set [1] (0.625 µM, 30 min) is 112% ± 2.4; in data set [1] (7.5 µM, 30 min), “lower cell viability with respect to the control”; in data set [1] (7.5 µM, 60 min), “cell viability similar to the control”. For the same compound, the “Percentage of Drug Absorption (A%)” value stood at 47% in data set [2] (10^−4 M, 60 min); 42% in data set [2] (10^−5 M, 60 min); 24% in data set [2] (10^−6 M, 60 min). Besides, the “Percentage of Drug Retention (Ad%)” value in data set [2] (10^−4 M, 60 min) is on record as 2%; in data set [2] (10^−5 M, 60 min), 10%; in data set [2] (10^−6 M, 60 min), 35%. In addition, the “Absorbed Concentration” value in data set [2] (setting [5]) was 11.5 µg/mL; in data set [2] (setting [6]), 1.03 µg/mL; in data set [2] (setting [7]), 0.059 µg/mL. In addition, the Papp at 60 min in data set [2] (10^−4 M) was 33 ×10⁻⁶ cm/s; in data set [2] (10^−5 M) it was 29.6 ×10⁻⁶ cm/s; in data set [2] (10^−6 M) it was 16.9 ×10⁻⁶ cm/s. Further, the “antioxidant activity (Griess Reagent System)” value in data set [3] (compound 2 4500 nM) is listed as “no significant antioxidant activity”. Also, the viability at 40 µM in data set [4] (N13, 40 µM 60 min before CK cocktail 48 h, CK cocktail alone 79% ± 1.1 vs. control) amounted to 85%.
